Source: patent US20040170622A1, “Methods and compositions for modulating XBP-1 activity” (President and Fellows of Harvard College, priority 2002, published 2004)

Columns and labels:
Assay type in all cases: cell-based
[1] = system: IRE1α-mediated XBP-1 mRNA splicing; test: XBP-1 mRNA level and splicing in J558 cells (Northern blot, RT-PCR); conditions: J558, Tm 4 hrs; MG-132 10 μM, PS-341 10 μM, ZL3VS 50 μM, AdaAhxL3VS 50 μM
Method: (A) XBP-1 mRNA levels in ER stressed J558 cells treated with Tm for 4 hrs in the absence or presence of MG-132. Cells were pretreated with MG-132 for 1 hr before adding Tm. XBP-1 mRNA levels were determined by Northern blot analysis. […] (C) Effect of a panel of PIs on XBP-1 splicing. Cells were treated with Tm for 4 hrs in the absence or presence of MG-132 (10 μM), PS-341 (10 μM), Lactacystin (10 μM), ZL3VS (50 μM) or AdaAhxL3VS (50 μM), and XBP-1 mRNA splicing measured by RT-PCR analysis. (D) IRE-1α phosphorylation in NIH3T3 cells were treated with Tm as indicated after 2 hrs of pretreatment with MG-132 (10 μM).
Total RNA was prepared by using Trizol reagent, electrophoresed on 1.2% agarose, 6% formaldehyde gels and then transferred onto Genescreen Plus membrane, (NEN, Boston, Mass.). […] Probes for ERdj4 and p58^IPK were generated from cDNA excised from EST clones (ATCC, Manassas, Va.) using appropriate restriction enzymes (ERdj4, IMAGE: 1920927; p58^IPK, IMAGE:2646147).

XBP-1 protein = XBP-1 protein species in MOPC315 and MM.1S myeloma cells treated with proteasome inhibitors (Western blot); conditions: mouse myeloma MOPC315 and human myeloma MM.1S
Method: A variety of reversible and irreversible inhibitors that inhibit degradation of proteins by the ubiquitin-proteasome pathway have recently been identified. Proteasome inhibitors MG132 and PS341 block the rapid degradation of ubiquitinated proteins such as unspliced, but not spliced XBP-1. Myeloma cells express primarily spliced XBP-1 protein as expected. […] In this experiment lysates from MOPC315 cells were untreated or treated for 6 hours with 5 ug/ml of tunicamycin or 20 uM of MG-132 and were analyzed for the presence of XBP-1 using XBP-1 antibody. The two forms of XBP-1 were distinguished by their molecular weight.
In the presence of proteasome inhibitors, unspliced XBP-1 protein accumulates in the cell and is present at higher levels than the spliced protein. Lysates from Mm. 1S cells were untreated or treated for 1, 4, or 8 hours with 20 uM of PS-341 and were analyzed by western blotting with anti-XBP-1 antibody. Because unspliced, but not spliced XBP-1 is stabilized, the ratio of unspliced to spliced XBP-1 increases in cells treated with proteasome inhibitors.

XBP-1s and XBP-1u = test: Ratio of XBP-1 species in MM.1s line and primary MM cells; conditions: human MM cell line MM.1s and primary MM cells from patient bone marrow
Method: (§1) (A) BiP and CHOP induction was examined by northern blot analysis after treating NIH3T3 or J558 myeloma cells with either MG-132 (20 μM), Tm (10 μg/ml) or both. Cells were pretreated with MG-132 for 1 hr and then further treated with Tm for 4 hrs. Ethidium bromide staining of the gel is shown at the bottom. (B) Inhibition of caspase-12 processing by proteasome inhibitors. Processing of full-length caspase-12 was examined by Western blotting in J558 myeloma cells treated with thapsigargin (1 μM) or PIs (20 μM) during the indicated time periods. (C) Alteration in the ratio of XBP-1 protein species in J558 cells were treated with increasing amounts of MG-132 for 16 hrs. Cells undergoing apoptosis were counted by Annexin V staining. (D) Time course of the XBP-1s to XBP-1u shift. Cells were treated with MG-132 (1 μM) for the indicated times and XBP-1u and spliced protein levels and cell death determined. (E) Alteration in the ratio of XBP-1 species in the MM.1s human myeloma line. Cells were treated with PS-341 (8 nM) in a time course analysis and XBP-1 protein species quantified.

J558 myeloma cells = test: Apoptosis of J558 myeloma cells (Annexin V staining); conditions: agent alone
Method: as §1
(A) Synergistic effect of Tm and MG-132 on apoptosis. Annexin V positive cells were counted after treating J558 cells for 18 hrs with suboptimal concentrations of Tm and MG-132 as indicated. (B) J558-iXBP cells were generated by retroviral transduction of J558 cells with the U6 promoter based XBP-1 RNAi vector. (C) XBP-1 dependent gene expression in J558 cells that express control GFP, dn-XBP or iXBP-1 treated with Tm. Generation of dn-XBP-1 J558 cells by infection with a retrovirus containing dn-XBP cDNA inserted into the GFP-RV vector (N. N. lwakoshi et al., Nature Immunology 4, 321-329 (2003)). ERdj4, p58^IPK, BiP and CHOP gene expression were examined by Northern blot analysis. (D) Increased apoptosis in iXBP-1 and dn-XBP-1 expressing J558 cells. Cells were treated with the indicated amounts of Tm for 48 hrs and dead cells counted after Annexin V staining.
Cells were stained with annexin V-PE (BD PharMingen, San Jose, Calif.) as recommended and analyzed on a FACScan flow cytometer (Becton Dickinson, San Jose, Calif.).

[2] = system: XBP-1u and XBP-1s proteins; test: XBP-1u and XBP-1s protein levels in J558 cells (Western blot); conditions: J558 cells, 16 hrs
Method: as §1
Cells were lysed in RIPA buffer (50 mM Tris pH 7.4, 150 mM NaCl, 1 mM EDTA, 1% Triton X-100, 1% sodium deoxycholate, 0.1% SDS) and lysates subjected to SDS-PAGE and transferred to Hybond P membrane (Amersham-Pharmacia, Piscataway, N.J.). […] HeLa cells were cotransfected with XBP-1u and His-tagged ubiquitin expression plasmids (pMT 107, D. Bohmann, EMBL, Germany) by using the Lipofectamine-2000 reagent (Invitrogen, Carlsbad, Calif.). […] Degradation rates of XBP-1u and XBP-1s proteins were determined by pulse labeling J558 cells with ^35S Met/Cys for 1 hr and chasing for the indicated times.

CC(C)C[C@H](NC(=O)[C@H](Cc1ccccc1)NC(=O)c1cnccn1)B(O)O [PS-341]
effect on Tm-induced XBP-1 mRNA splicing [1]: suppressed XBP-1 mRNA splicing as efficiently as MG-132
amount of unspliced XBP-1 protein (XBP-1 protein): dramatic increase in the amount of unspliced XBP-1 protein
levels of active spliced XBP-1 protein (XBP-1 protein): concomitant decrease in levels of the active spliced XBP-1 protein
shift in the ratio of XBP-1s to XBP-1u (XBP-1s and XBP-1u): induced the same marked shift in the ratio of XBP-1s to XBP-1u
apoptosis in J558 cells (J558 myeloma cells): induced apoptosis in J558 cells
XBP-1u accumulation and XBP-1s decrease [2]: striking accumulation of XBP-1 u and a concomitant decrease in XBP-1s proteins
